Assays:
Experiment in all cases: Test C preemergence
Format in all cases: in vivo
[1] = test system: ragweed (common ragweed, Ambrosia elatior); conditions: Ambrosia artemisiifolia, pre-emergence, 336 h, scale 0 to 100, read-out: Plant response rating, Ragweed
Procedure, shortened: (§1)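 Visual ratings (0 none to 100 complete control) were made 13 to 15 days after treatment, relative to controls. Test chemicals, formulated in a non-phytotoxic solvent mixture with surfactant, were applied in the greenhouse preemergence to seeded loam-sand soil or postemergence to plants 2 to 18 cm tall.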

[2] = test system: galium (catchweed bedstraw, Galium aparine); conditions: Galium, pre-emergence, 336 h, scale 0 to 100, read-out: Plant response rating, Galium
Procedure, shortened: as §1

[3] = test system: Italian ryegrass (Lolium multiflorum); conditions: Lolium multiflorum, pre-emergence, 336 h, scale 0 to 100, read-out: Plant response rating, Ryegrass, Italian
Procedure, shortened: as §1

[4] = test system: morningglory (Ipomoea coccinea); conditions: Ipomoea, pre-emergence, 336 h, scale 0 to 100, read-out: Plant response rating, Morningglory
Procedure, shortened: as §1

[5] = test system: waterhemp (common waterhemp, Amaranthus rudis); conditions: Amaranthus tuberculatus, pre-emergence, scale 0 to 100, read-out: Plant response rating, Waterhemp
Procedure, shortened: as §1

[6] = test system: johnsongrass (Sorghum halepense); conditions: Sorghum halepense, pre-emergence, 336 h, scale 0 to 100, read-out: Plant response rating, Johnsongrass
Procedure, shortened: as §1

[7] = test system: blackgrass (Alopecurus myosuroides); conditions: Alopecurus myosuroides, pre-emergence, 336 h, scale 0 to 100, read-out: Plant response rating, Blackgrass
Procedure, shortened: as §1

[8] = test system: oilseed rape (Brassica napus); conditions: Brassica napus, pre-emergence, scale 0 to 100, read-out: Plant response rating, Oilseed Rape
Procedure, shortened: as §1

[9] = test system: large (Lg) crabgrass (Digitaria sanguinalis); conditions: Digitaria sanguinalis, pre-emergence, 336 h, scale 0 to 100, read-out: Plant response rating, Crabgrass, Large
Procedure, shortened: as §1

[10] = test system: soybean (Glycine max); conditions: Glycine max, pre-emergence, scale 0 to 100, read-out: Plant response rating, Soybean
Procedure, shortened: as §1

[11] = test system: velvetleaf (Abutilon theophrasti); conditions: Abutilon theophrasti, pre-emergence, scale 0 to 100, read-out: Plant response rating, Velvetleaf
Procedure, shortened: as §1

[12] = test system: yellow nutsedge (Cyperus esculentus); conditions: Cyperus, pre-emergence, 336 h, scale 0 to 100, read-out: Plant response rating, Nutsedge, Yellow
Procedure, shortened: as §1

[13] = test system: winter wheat (Triticum aestivum); conditions: Triticum aestivum, pre-emergence, 336 h, scale 0 to 100, read-out: Plant response rating, Wheat
Procedure, shortened: as §1

[14] = test system: giant foxtail (Setaria faberii); conditions: Setaria faberi, pre-emergence, 336 h, scale 0 to 100, read-out: Plant response rating, Foxtail, Giant
Procedure, shortened: as §1

[15] = test system: corn (Zea mays); conditions: Zea mays, pre-emergence, 336 h, scale 0 to 100
Procedure, shortened: as §1

[16] = test system: pigweed (Amaranthus retroflexus); conditions: Amaranthus retroflexus, pre-emergence, 336 h, scale 0 to 100, read-out: Plant response rating, Pigweed
Procedure, shortened: as §1

**Q.** Which results are given for `Clc1cnc(Oc2cccc(Br)c2Oc2ncc(Cl)cn2)nc1` [Compound 19, 2,2′-[[3-bromo-1,2-phenylene]bis(oxy)]bis[5-chloropyrimidine]]?
**A.** pest or weed control at 31 g/ha ([1]; 31 g ai/ha, preemergence): 30%; pest or weed control at 62 g/ha ([1]; 62 g ai/ha, preemergence): 55%; pest or weed control at 125 g/ha ([1]; 125 g ai/ha, preemergence): 60%; pest or weed control at 16 g/ha ([1]; Preemergence, 16 g ai/ha): 0%; pest or weed control at 31 g/ha ([2]; 31 g ai/ha, preemergence): 100%; pest or weed control at 62 g/ha ([2]; 62 g ai/ha, preemergence): 100%; pest or weed control at 125 g/ha ([2]; 125 g ai/ha, preemergence): 100%; pest or weed control at 16 g/ha ([2]; Preemergence, 16 g ai/ha): 85%; pest or weed control at 31 g/ha ([3]; 31 g ai/ha, preemergence): 50%; pest or weed control at 62 g/ha ([3]; 62 g ai/ha, preemergence): 70%; pest or weed control at 125 g/ha ([3]; 125 g ai/ha, preemergence): 90%; pest or weed control at 16 g/ha ([3]; Preemergence, 16 g ai/ha): 5%; pest or weed control at 31 g/ha ([4]; 31 g ai/ha, preemergence): 45%; pest or weed control at 62 g/ha ([4]; 62 g ai/ha, preemergence): 90%; pest or weed control at 125 g/ha ([4]; 125 g ai/ha, preemergence): 100%; pest or weed control at 16 g/ha ([4]; Preemergence, 16 g ai/ha): 5%; pest or weed control at 31 g/ha ([5]; 31 g ai/ha, preemergence): 100%; pest or weed control at 62 g/ha ([5]; 62 g ai/ha, preemergence): 100%; pest or weed control at 125 g/ha ([5]; 125 g ai/ha, preemergence): 100%; pest or weed control at 16 g/ha ([5]; Preemergence, 16 g ai/ha): 100%; pest or weed control at 31 g/ha ([6]; 31 g ai/ha, preemergence): 50%; pest or weed control at 62 g/ha ([6]; 62 g ai/ha, preemergence): 85%; pest or weed control at 125 g/ha ([6]; 125 g ai/ha, preemergence): 98%; pest or weed control at 16 g/ha ([6]; Preemergence, 16 g ai/ha): 35%; pest or weed control at 31 g/ha ([7]; 31 g ai/ha, preemergence): 40%; pest or weed control at 62 g/ha ([7]; 62 g ai/ha, preemergence): 90%; pest or weed control at 125 g/ha ([7]; 125 g ai/ha, preemergence): 95%; pest or weed control at 16 g/ha ([7]; Preemergence, 16 g ai/ha): 30%; plant injury at 31 g/ha ([8]; 31 g ai/ha, preemergence): 85%; plant injury at 62 g/ha ([8]; 62 g ai/ha, preemergence): 98%; plant injury at 125 g/ha ([8]; 125 g ai/ha, preemergence): 100%; plant injury at 16 g/ha ([8]; Preemergence, 16 g ai/ha): 30%; pest or weed control at 31 g/ha ([9]; 31 g ai/ha, preemergence): 100%; pest or weed control at 62 g/ha ([9]; 62 g ai/ha, preemergence): 100%; pest or weed control at 125 g/ha ([9]; 125 g ai/ha, preemergence): 100%; pest or weed control at 16 g/ha ([9]; Preemergence, 16 g ai/ha): 98%; plant injury at 31 g/ha ([10]; 31 g ai/ha, preemergence): 50%; plant injury at 62 g/ha ([10]; 62 g ai/ha, preemergence): 90%; plant injury at 125 g/ha ([10]; 125 g ai/ha, preemergence): 80%; plant injury at 16 g/ha ([10]; Preemergence, 16 g ai/ha): 25%; pest or weed control at 31 g/ha ([11]; 31 g ai/ha, preemergence): 98%; pest or weed control at 62 g/ha ([11]; 62 g ai/ha, preemergence): 100%; pest or weed control at 125 g/ha ([11]; 125 g ai/ha, preemergence): 100%; pest or weed control at 16 g/ha ([11]; Preemergence, 16 g ai/ha): 60%; pest or weed control at 31 g/ha ([12]; 31 g ai/ha, preemergence): 5%; pest or weed control at 62 g/ha ([12]; 62 g ai/ha, preemergence): 20%; pest or weed control at 125 g/ha ([12]; 125 g ai/ha, preemergence): 55%; pest or weed control at 16 g/ha ([12]; Preemergence, 16 g ai/ha): 0%; plant injury at 31 g/ha ([13]; 31 g ai/ha, preemergence): 25%; plant injury at 62 g/ha ([13]; 62 g ai/ha, preemergence): 40%; plant injury at 125 g/ha ([13]; 125 g ai/ha, preemergence): 85%; plant injury at 16 g/ha ([13]; Preemergence, 16 g ai/ha): 0%; pest or weed control at 31 g/ha ([14]; 31 g ai/ha, preemergence): 100%; pest or weed control at 62 g/ha ([14]; 62 g ai/ha, preemergence): 100%; pest or weed control at 125 g/ha ([14]; 125 g ai/ha, preemergence): 100%; pest or weed control at 16 g/ha ([14]; Preemergence, 16 g ai/ha): 60%; Corn plant response rating (crop injury, 0 = no effect, 100 = complete kill) at 31 g/ha ([15]; 31 g ai/ha, preemergence): 25%; Corn plant response rating (crop injury, 0 = no effect, 100 = complete kill) at 62 g/ha ([15]; 62 g ai/ha, preemergence): 80%; Corn plant response rating (crop injury, 0 = no effect, 100 = complete kill) at 125 g/ha ([15]; 125 g ai/ha, preemergence): 90%; Corn plant response rating (crop injury, 0 = no effect, 100 = complete kill) at 16 g/ha ([15]; Preemergence, 16 g ai/ha): 5%; pest or weed control at 31 g/ha ([16]; 31 g ai/ha, preemergence): 100%; pest or weed control at 62 g/ha ([16]; 62 g ai/ha, preemergence): 100%; pest or weed control at 125 g/ha ([16]; 125 g ai/ha, preemergence): 100%; pest or weed control at 16 g/ha ([16]; Preemergence, 16 g ai/ha): 100%
